Legend:
[1] = tested on: CD4+CD25+Foxp3+ Treg population; test: Treg population in LN cells of EAU mice (flow cytometry); assay type: in vivo, C57BL/6 (WT) mice; details: control vs AICAR-treated mice; 21 days after immunization
Text: The effect of AICAR on the regulatory T (Treg) cell population in the EAU mice was also directly assessed. Specifically, LN cells from five mice were harvested at 21 days after immunization and stained with a mouse regulatory T cell staining kit #2 (eBioscience) according to manufacturer's instructions. CD4^+CD25^+Foxp3^+ Treg populations were subsequently detected by flow cytometry.

[2] = tested on: endotoxin-induced uveitis (EIU); test: Cell count and total protein concentration in aqueous humor of EIU rats; assay type: in vivo, Lewis rats
Procedure: Male Lewis rats ranging from 6-8 weeks old (Charles River, Wilmington, Mass.) were used for these studies. To study the effects of AICAR pretreatment, AICAR and PBS (for placebo treatment) were delivered via intraperitoneal injection of AICAR (50 mg/kg or 100 mg/kg body weight; Sigma) diluted in 150 μl PBS or equal volume of PBS at 6 hours before and at the same time as LPS injection. Four experimental groups of rats were compared: (1) Normal: no treatment (2) AICAR: normal rats treated with AICAR 6 hours before examination; (3) LPS: EIU rats treated with PBS; (4) LPS+AICAR: EIU rats treated with AICAR. Two additional groups of rats were used to study the effects of AICAR (50 mg/kg) given either at the same time as LPS injection or at 6 hours after LPS injection. Aqueous humor was collected by anterior chamber puncture with a 30-gauge needle 24 hours after LPS injection. For cell counting, 1 μl of aqueous humor was diluted with an equal amount of Trypan-blue solution, and the cells were counted with a hematocytometer under a light microscope. A separate sample of aqueous humor was centrifuged at 2500 rpm for 5 minutes at 4° C. and the total protein concentration was measured by Lowry methods using a Bio-Rad protein assay kit (Hercules, Calif.). Aqueous samples were stored on ice until used; cell counts and total protein concentrations were measured on the day of sample collection.

WT BMDCs = test: LPS-stimulated BMDC maturation (FACS) and cytokine production (ELISA); assay type: cell-based, mice
Procedure: BMDCs were generated as previously described (Wang et al. (2005) IMMUNOL. LETT. 98:123-130). Briefly, bone marrow was flushed from the femurs and tibias of naive mice (6 to 8-week-old WT or AMPKα1 KO mice). The red blood cells were lysed using Red Blood Cell Lysing Buffer (Sigma). Approximately 2×10^6 cells were cultured in complete medium (RPMI 1640 medium containing 10% FBS, […], 10 mM HEPES [pH 7.4], 2 mM glutamine, 100 U/ml penicillin, and […]) including 10 ng/ml GM-CSF (Pepro Tech, London, England). Fresh media was added to the cells on day 4 of culture, and nonadherent cells and loosely adherent cells were collected as immature DCs on day 7. Immature DCs were stimulated with 100 ng/ml LPS (Salmonella typhimurium; Sigma) for 24 hours to obtain mature DCs. In some experiments, AICAR was added to the culture. […] After LPS stimulation for 24 hours, supernatant of the BMDC culture was collected and IL-6, TNF-α and IL12/23 p40 concentrations were measured (R&D system).

splenic DCs = test: Splenic DC co-stimulatory molecule expression in EAU mice (FACS); assay type: in vivo; details: AICAR-treated vs non-treated EAU mice; twelve days after immunization
Procedure: To investigate whether DC maturation was affected by AICAR, splenic DCs were isolated from EAU mice and analyzed for co-stimulatory molecule expression. Specifically, spleen cells from 4 to 5 EAU mice were pooled at twelve days after immunization and incubated with the following monoclonal antibodies: anti-CD11c (N418), CD40 (3/23), CD80 (16-10A1), CD86 (GL-1), I-A^b (AF6-120.1) (Biolegend). Spleen cells were gated on the basis of forward and side scatter profile and propidium iodide or DAPI exclusion. Samples of 1×10^6 cells were analyzed by LSR (Becton Dickinson, Franklin Lakes, N.J.).

retinal vessels = test: Protein leakage from retinal vessels (biotinylated BSA assay); assay type: in vivo, Lewis rats; details: AICAR-pretreated EIU rats, 24 h after LPS; n=8; EIU rats 30.5±21.2
Procedure: Male Lewis rats ranging from 6-8 weeks old (Charles River, Wilmington, Mass.) were used for these studies. To study the effects of AICAR pretreatment, AICAR and PBS (for placebo treatment) were delivered via intraperitoneal injection of AICAR (50 mg/kg or 100 mg/kg body weight; Sigma) diluted in 150 μl PBS or equal volume of PBS at 6 hours before and at the same time as LPS injection. Four experimental groups of rats were compared: (1) Normal: no treatment (2) AICAR: normal rats treated with AICAR 6 hours before examination; (3) LPS: EIU rats treated with PBS; (4) LPS+AICAR: EIU rats treated with AICAR. Two additional groups of rats were used to study the effects of AICAR (50 mg/kg) given either at the same time as LPS injection or at 6 hours after LPS injection. Protein leakage from retinal vessels was assessed with a biotinylated bovine serum albumin (bBSA) assay as previously described (Trichonas et al. (2010) INVEST. OPHTHALMOL. VIS. SCI. 51:1677-1682). At 23 hours after LPS injection, rats were anesthetized and 0.14 ml of 43.7 mg/ml bBSA (Santa-Cruz Biotechnology, Santa Cruz, Calif.) was injected through the femoral vein. After one hour, the chest cavities of rats were opened, and the rats were perfused with lactated Ringer's solution via the left ventricle for 6 minutes. […] Supernatant was collected, and bBSA concentration was measured by enzyme-linked immunosorbent assay (ELISA). […]

[3] = 100 ng/ml LPS 24 hours with AICAR, dose-dependent manner
[4] = LPS stimulation for 24 hours with AICAR, ELISA

NC(=O)c1ncn([C@@H]2O[C@H](CO)[C@@H](O)[C@H]2O)c1N [AICAR, 5-aminoimidazole-4-carboxamide-1-β-d-ribofuranoside]
CD4+CD25+Foxp3+ Treg population [1]: not significantly different | Total protein concentration in aqueous humor ([2]; AICAR 50 mg/kg pretreatment, 24 h after LPS, LPS only 18.3): 7.9 mg/mL | Number of infiltrating cells in aqueous humor ([2]; AICAR 50 mg/kg pretreatment, 24 h after LPS, n=11, LPS only 22.0×10^5): 1.4×10^5 cells/ml | Cell infiltration and protein levels in aqueous humor of AICAR-only-treated rats ([2]; normal rats, AICAR only, n=6): did not show any significant infiltration of cells nor a significant increase in protein levels | CD40 expression on BMDCs (WT BMDCs; [3]): significantly suppressed | CD80 expression on BMDCs (WT BMDCs; [3]): significantly suppressed | CD86 expression on BMDCs (WT BMDCs; [3]): significantly suppressed | I-A^b expression on BMDCs (WT BMDCs; [3]): significantly suppressed | IL-6 production in BMDCs (WT BMDCs; [4]): significantly suppressed | IL-12/23 p40 production in BMDCs (WT BMDCs; [4]): significantly suppressed | TNF-α production in BMDCs (WT BMDCs; [4]): significantly suppressed | CD40, CD80, CD86 and I-A^b expression on splenic DCs (splenic DCs): no difference | Protein leakage from retinal vessels (bBSA) (retinal vessels): 11.2±7.2 ng/mg total retinal protein

From patent publication US10842806B2, “Methods for treating ocular inflammatory disorders” (Massachusetts Eye and Ear Infirmary, priority 2011, dated 2020)
